In article PMC5218480 (PLoS ONE, 2017):

Test system: MV-4-11 cells
Assay: Gene expression microarray analysis (Affymetrix PrimeView) and GSEA
Type: cell-based, human
Set-up: RFU PODN (11730768_x_at) / Fold change /veh PODN (11730768_x_at) / RFU LINC00158 (11744669_a_at) / Fold change /veh LINC00158 (11744669_a_at) / RFU DUSP10 (11751237_a_at) / Fold change /veh DUSP10 (11751237_a_at) / RFU ID3 (11757404_x_at) / Fold change /veh ID3 (11757404_x_at) / RFU PLEKHG5 (11737974_s_at) / Fold change /veh PLEKHG5 (11737974_s_at) / RFU LRRC4B (11730491_at) / Fold change /veh LRRC4B (11730491_at) / RFU GIMAP4 (11747438_a_at) / Fold change /veh GIMAP4 (11747438_a_at) / RFU KRT8 (11758183_x_at) / Fold change /veh KRT8 (11758183_x_at) / RFU CNN1 (11734310_a_at) / Fold change /veh CNN1 (11734310_a_at) / RFU VPS37D (11726825_at) / Fold change /veh VPS37D (11726825_at) / RFU C10orf10 (11716522_x_at) / Fold change /veh C10orf10 (11716522_x_at) / RFU KIR2DL2 /// KIR2DL4 /// KIR2DL5A /// KIR2DL5B /// KIR2DS1 /// KIR2DS2 /// KIR2DS3 /// KIR2DS4 /// KIR3DL3 /// KIR3DL3 /// KIR3DS1 (11738374_at) / Fold change /veh KIR2DL2 /// KIR2DL4 /// KIR2DL5A /// KIR2DL5B /// KIR2DS1 /// KIR2DS2 /// KIR2DS3 /// KIR2DS4 /// KIR3DL3 /// KIR3DL3 /// KIR3DS1 (11738374_at) / RFU C1QL1 (11718748_at) / Fold change /veh C1QL1 (11718748_at) / RFU TMPRSS4 (11747572_a_at) / Fold change /veh TMPRSS4 (11747572_a_at) / RFU HAMP (11756126_x_at) / Fold change /veh HAMP (11756126_x_at) / RFU RNFT2 (11725882_a_at) / Fold change /veh RNFT2 (11725882_a_at) / RFU NR4A2 (11747474_a_at) / Fold change /veh NR4A2 (11747474_a_at) / RFU ABCC12 (11746883_a_at) / Fold change /veh ABCC12 (11746883_a_at) / RFU TMEM136 (11760407_x_at) / Fold change /veh TMEM136 (11760407_x_at) / RFU CLDN22 /// WWC2 (11732394_at) / Fold change /veh CLDN22 /// WWC2 (11732394_at) / RFU HLA-DPB1 (11760878_x_at) / Fold change /veh HLA-DPB1 (11760878_x_at) / RFU SPINT1 (11716480_a_at) / Fold change /veh SPINT1 (11716480_a_at) / RFU GAP43 (11754022_s_at) / Fold change /veh GAP43 (11754022_s_at) / RFU A4GNT (11735810_at) / Fold change /veh A4GNT (11735810_at) / RFU PRB3 (11715151_x_at) / Fold change /veh PRB3 (11715151_x_at) / RFU TUBB4B (11761932_at) / Fold change /veh TUBB4B (11761932_at) / RFU CAPN14 (11732068_a_at) / Fold change /veh CAPN14 (11732068_a_at) / RFU TMCC2 (11721928_a_at) / Fold change /veh TMCC2 (11721928_a_at) / RFU IRGQ (11745062_a_at) / Fold change /veh IRGQ (11745062_a_at) / RFU FAM174B (11720279_a_at) / Fold change /veh FAM174B (11720279_a_at) / RFU TMPRSS4 (11748680_a_at) / Fold change /veh TMPRSS4 (11748680_a_at) / RFU FAM212B (11763350_a_at) / Fold change /veh FAM212B (11763350_a_at) / RFU PLEKHG5 (11743358_a_at) / Fold change /veh PLEKHG5 (11743358_a_at) / RFU ZSCAN30 (11745921_a_at) / Fold change /veh ZSCAN30 (11745921_a_at) / RFU CMKLR1 (11741424_a_at) / Fold change /veh CMKLR1 (11741424_a_at) / RFU LOC101060620 /// MAPK8IP1 (11723275_at) / Fold change /veh LOC101060620 /// MAPK8IP1 (11723275_at) / RFU SPTSSB (11747773_x_at) / Fold change /veh SPTSSB (11747773_x_at) / RFU PRSS12 (11739890_at) / Fold change /veh PRSS12 (11739890_at) / RFU BIN1 (11741810_x_at) / Fold change /veh BIN1 (11741810_x_at) / RFU WNT11 (11732464_a_at) / Fold change /veh WNT11 (11732464_a_at) / RFU C10orf10 (11716521_a_at) / Fold change /veh C10orf10 (11716521_a_at) / RFU C5orf56 (11738089_at) / Fold change /veh C5orf56 (11738089_at) / RFU CYB561 (11721691_x_at) / Fold change /veh CYB561 (11721691_x_at) / RFU ANKRD19P (11752326_a_at) / Fold change /veh ANKRD19P (11752326_a_at) / RFU OR2T12 /// OR2T33 /// OR2T8 (11738714_s_at) / Fold change /veh OR2T12 /// OR2T33 /// OR2T8 (11738714_s_at) / RFU VCAN (11748164_a_at) / Fold change /veh VCAN (11748164_a_at) / RFU JSRP1 (11732532_at) / Fold change /veh JSRP1 (11732532_at) / RFU KRTAP10-11 (11738290_x_at) / Fold change /veh KRTAP10-11 (11738290_x_at) / RFU MYO3A (11730013_a_at) / Fold change /veh MYO3A (11730013_a_at) / RFU EBF3 (11725865_a_at) / Fold change /veh EBF3 (11725865_a_at) / RFU CAMK2N1 (11719241_x_at) / Fold change /veh CAMK2N1 (11719241_x_at) / RFU C5orf56 (11738088_a_at) / Fold change /veh C5orf56 (11738088_a_at) / RFU OLFML3 (11715873_a_at) / Fold change /veh OLFML3 (11715873_a_at) / RFU LOC100653217 /// NTM (11731650_a_at) / Fold change /veh LOC100653217 /// NTM (11731650_a_at) / RFU MAPK11 (11762145_a_at) / Fold change /veh MAPK11 (11762145_a_at) / RFU FIZ1 (11724087_x_at) / Fold change /veh FIZ1 (11724087_x_at) / RFU OASL (11726364_x_at) / Fold change /veh OASL (11726364_x_at) / RFU SOX15 (11748057_x_at) / Fold change /veh SOX15 (11748057_x_at) / RFU CD79A (11719716_a_at) / Fold change /veh CD79A (11719716_a_at) / RFU HIST1H1D (11736915_at) / Fold change /veh HIST1H1D (11736915_at) / RFU CASKIN2 (11723855_a_at) / Fold change /veh CASKIN2 (11723855_a_at) / RFU LOC730098 (11760151_x_at) / Fold change /veh LOC730098 (11760151_x_at) / RFU OR4N2 (11742367_at) / Fold change /veh OR4N2 (11742367_at) / RFU PRRT2 (11749266_a_at) / Fold change /veh PRRT2 (11749266_a_at) / RFU SNX32 (11753110_a_at) / Fold change /veh SNX32 (11753110_a_at) / RFU CDHR5 (11726645_a_at) / Fold change /veh CDHR5 (11726645_a_at) / RFU RCAN1 (11760418_a_at) / Fold change /veh RCAN1 (11760418_a_at) / RFU FAM167A (11723789_a_at) / Fold change /veh FAM167A (11723789_a_at) / RFU FAM26E (11764081_at) / Fold change /veh FAM26E (11764081_at) / RFU ISYNA1 (11749810_s_at) / Fold change /veh ISYNA1 (11749810_s_at) / RFU ACY1 (11761880_at) / Fold change /veh ACY1 (11761880_at) / RFU 11764098_at / Fold change /veh 11764098_at / RFU SAMD14 (11745864_x_at) / Fold change /veh SAMD14 (11745864_x_at) / RFU NPB (11741838_a_at) / Fold change /veh NPB (11741838_a_at) / RFU TMPRSS6 (11731388_a_at) / Fold change /veh TMPRSS6 (11731388_a_at) / RFU KRTAP10-2 (11738614_at) / Fold change /veh KRTAP10-2 (11738614_at) / RFU ARHGAP8 /// PRR5-ARHGAP8 (11727945_x_at) / Fold change /veh ARHGAP8 /// PRR5-ARHGAP8 (11727945_x_at) / RFU KRTAP5-7 /// NADSYN1 (11734609_at) / Fold change /veh KRTAP5-7 /// NADSYN1 (11734609_at) / RFU RASL12 (11751679_a_at) / Fold change /veh RASL12 (11751679_a_at) / RFU CDKN2B (11736163_a_at) / Fold change /veh CDKN2B (11736163_a_at) / RFU PRF1 (11729649_at) / Fold change /veh PRF1 (11729649_at) / RFU, ZNF638 /// ZNF638-IT1 / Fold change vs veh, ZNF638 /// ZNF638-IT1 / RFU, PANK3 / Fold change vs veh, PANK3 / RFU, SH3YL1 / Fold change vs veh, SH3YL1 / RFU, ZEB2 / Fold change vs veh, ZEB2 / RFU, NRIP1 / Fold change vs veh, NRIP1 / RFU, PTTG1IP / Fold change vs veh, PTTG1IP / RFU, CAPN2 / Fold change vs veh, CAPN2 / RFU, MED14 / Fold change vs veh, MED14 / RFU, SNORA58 / Fold change vs veh, SNORA58 / RFU, C1orf63 / Fold change vs veh, C1orf63 / RFU, LRRFIP1 / Fold change vs veh, LRRFIP1 / RFU, NDUFAF7 / Fold change vs veh, NDUFAF7 / RFU, SLC12A2 / Fold change vs veh, SLC12A2 / RFU, IBTK / Fold change vs veh, IBTK / RFU, ESF1 / Fold change vs veh, ESF1 / Fold change vs veh, TMEM50B / RFU, TAOK1 / Fold change vs veh, TAOK1 / RFU, ACBD3 / Fold change vs veh, ACBD3 / RFU, TMA16 / Fold change vs veh, TMA16 / RFU, RWDD3 / Fold change vs veh, RWDD3 / RFU, BCAT1 / Fold change vs veh, BCAT1 / RFU, EDEM3 / Fold change vs veh, EDEM3 / RFU, TMEM33 / Fold change vs veh, TMEM33 / RFU, WDR75 / Fold change vs veh, WDR75 / RFU, AHCTF1 / Fold change vs veh, AHCTF1 / RFU, TFRC / Fold change vs veh, TFRC / RFU, ZDHHC17 / Fold change vs veh, ZDHHC17 / RFU, NOM1 / Fold change vs veh, NOM1 / RFU, ARL8B / Fold change vs veh, ARL8B / RFU, ZBTB11 / Fold change vs veh, ZBTB11 / RFU, TAMM41 / Fold change vs veh, TAMM41 / RFU, KIAA1704 /// LOC100996395 / Fold change vs veh, KIAA1704 /// LOC100996395 / RFU, ING1 / Fold change vs veh, ING1 / RFU, TRMT61B / Fold change vs veh, TRMT61B / RFU, FUBP3 / Fold change vs veh, FUBP3 / RFU, TP53 / Fold change vs veh, TP53 / RFU, TNKS2 / Fold change vs veh, TNKS2 / RFU, ZFP14 / Fold change vs veh, ZFP14 / RFU, ACTR2 / Fold change vs veh, ACTR2 / RFU, PPP3R1 / Fold change vs veh, PPP3R1 / RFU, PIK3R1 / Fold change vs veh, PIK3R1 / RFU, HNRNPA1 / Fold change vs veh, HNRNPA1 / RFU, RNF170 / Fold change vs veh, RNF170 / RFU, ZNF28 / Fold change vs veh, ZNF28 / RFU, RNGTT / Fold change vs veh, RNGTT / RFU, OGT / Fold change vs veh, OGT / RFU, BRD1 / Fold change vs veh, BRD1 / RFU, MARS / Fold change vs veh, MARS / RFU, ZNF655 / Fold change vs veh, ZNF655 / RFU, FAHD1 / Fold change vs veh, FAHD1 / RFU, BDP1 / Fold change vs veh, BDP1 / RFU, LRRCC1 / Fold change vs veh, LRRCC1 / RFU, ARID1A / Fold change vs veh, ARID1A / RFU, ZNF146 / Fold change vs veh, ZNF146 / RFU, ZNF330 / Fold change vs veh, ZNF330 / RFU, GPN3 / Fold change vs veh, GPN3 / RFU, C9orf123 / Fold change vs veh, C9orf123 / RFU, N4BP2L2 / Fold change vs veh, N4BP2L2 / RFU, ARFIP1 / Fold change vs veh, ARFIP1 / RFU, FAM179B / Fold change vs veh, FAM179B / RFU, BCL10 / Fold change vs veh, BCL10 / RFU, UHRF1BP1L / Fold change vs veh, UHRF1BP1L / RFU, BET1 / Fold change vs veh, BET1 / RFU, CNOT2 / Fold change vs veh, CNOT2 / RFU, ZNF268 / Fold change vs veh, ZNF268 / Fold change vs veh, ZNF507 / RFU, DGCR2 / Fold change vs veh, DGCR2 / RFU, WDSUB1 / Fold change vs veh, WDSUB1 / Fold change vs veh, HSP90B1 /// MIR3652 / RFU, ADSS / Fold change vs veh, ADSS / RFU, GK / Fold change vs veh, GK / RFU, ZNF148 / Fold change vs veh, ZNF148 / RFU, TAF9 / Fold change vs veh, TAF9 / RFU, SLC1A5 / Fold change vs veh, SLC1A5 / RFU, SLMO2 / Fold change vs veh, SLMO2 / RFU, ABCC4 / Fold change vs veh, ABCC4 / RFU, LOC101060439 /// RAP1B / Fold change vs veh, LOC101060439 /// RAP1B / RFU, RFX7 / Fold change vs veh, RFX7 / RFU, GTPBP10 / Fold change vs veh, GTPBP10 / RFU, CNEP1R1 / Fold change vs veh, CNEP1R1 / RFU, BIVM-ERCC5 /// ERCC5 / Fold change vs veh, BIVM-ERCC5 /// ERCC5 / RFU, ILF3 / Fold change vs veh, ILF3 / RFU 11762660_at / Fold change /veh 11762660_at / RFU VCAN (11757783_s_at) / Fold change /veh VCAN (11757783_s_at) / RFU DDX43 (11728927_at) / Fold change /veh DDX43 (11728927_at) / RFU KRT8 (11758188_x_at) / Fold change /veh KRT8 (11758188_x_at) / RFU NKD1 (11759106_at) / Fold change /veh NKD1 (11759106_at) / RFU SRD5A1 (11742802_a_at) / Fold change /veh SRD5A1 (11742802_a_at) / RFU TPSAB1 /// TPSB2 (11721975_s_at) / Fold change /veh TPSAB1 /// TPSB2 (11721975_s_at) / RFU GSTM3 (11746129_a_at) / Fold change /veh GSTM3 (11746129_a_at) / RFU IL23R (11737362_x_at) / Fold change /veh IL23R (11737362_x_at) / RFU TMEM51 (11727254_a_at) / Fold change /veh TMEM51 (11727254_a_at) / RFU PIWIL2 (11732686_x_at) / Fold change /veh PIWIL2 (11732686_x_at) / RFU ORM1 (11744905_x_at) / Fold change /veh ORM1 (11744905_x_at) / RFU CCDC152 (11743942_at) / Fold change /veh CCDC152 (11743942_at) / RFU ECM1 (11717891_a_at) / Fold change /veh ECM1 (11717891_a_at) / RFU IL23R (11748794_a_at) / Fold change /veh IL23R (11748794_a_at) / RFU TNFAIP8L3 (11732012_x_at) / Fold change /veh TNFAIP8L3 (11732012_x_at) / RFU MBOAT4 (11741988_at) / Fold change /veh MBOAT4 (11741988_at) / RFU 11764193_at / Fold change /veh 11764193_at / RFU TMEM53 (11763286_at) / Fold change /veh TMEM53 (11763286_at) / RFU MAGEB2 (11727129_at) / Fold change /veh MAGEB2 (11727129_at) / RFU TMEM200A (11744735_a_at) / Fold change /veh TMEM200A (11744735_a_at) / RFU CCDC152 (11751479_a_at) / Fold change /veh CCDC152 (11751479_a_at) / RFU FAM211A (11726209_a_at) / Fold change /veh FAM211A (11726209_a_at) / RFU RGS16 (11746705_a_at) / Fold change /veh RGS16 (11746705_a_at) / RFU VCAN (11755009_s_at) / Fold change /veh VCAN (11755009_s_at) / RFU RHOB (11743442_s_at) / Fold change /veh RHOB (11743442_s_at) / RFU RGS16 (11720943_a_at) / Fold change /veh RGS16 (11720943_a_at) / RFU RGS16 (11720944_at) / Fold change /veh RGS16 (11720944_at) / RFU, VPS4B / Fold change vs veh, VPS4B / RFU, CREB1 / Fold change vs veh, CREB1 / RFU, DNAJC13 / Fold change vs veh, DNAJC13 / RFU, GNAQ / Fold change vs veh, GNAQ / RFU, CDK5R1 / Fold change vs veh, CDK5R1 / RFU, ZRANB3 / Fold change vs veh, ZRANB3 / RFU, CUL4A / Fold change vs veh, CUL4A / RFU, CCNY / Fold change vs veh, CCNY / RFU, UFL1 / Fold change vs veh, UFL1 / RFU, COG3 / Fold change vs veh, COG3 / RFU, DIAPH2 / Fold change vs veh, DIAPH2 / RFU, SKA2 / Fold change vs veh, SKA2 / RFU, AFF3 / Fold change vs veh, AFF3 / RFU, LMF1 / Fold change vs veh, LMF1 / RFU, IPO11 / Fold change vs veh, IPO11 / RFU, DFFB / Fold change vs veh, DFFB / RFU, FOXP1 / Fold change vs veh, FOXP1 / RFU, CARD8 / Fold change vs veh, CARD8 / RFU, STRN3 / Fold change vs veh, STRN3 / RFU, ADK / Fold change vs veh, ADK / RFU, RASSF2 / Fold change vs veh, RASSF2 / RFU, WIPF1 / Fold change vs veh, WIPF1 / RFU, LARP1B / Fold change vs veh, LARP1B / RFU, RASA1 / Fold change vs veh, RASA1 / RFU, RB1 / Fold change vs veh, RB1 / RFU, PPFIA1 / Fold change vs veh, PPFIA1 / RFU, MAT2A / Fold change vs veh, MAT2A / RFU, CCT5 / Fold change vs veh, CCT5 / RFU, WDR92 / Fold change vs veh, WDR92 / RFU, CUX1 / Fold change vs veh, CUX1 / RFU, TTC7A / Fold change vs veh, TTC7A / RFU, TMEM135 / Fold change vs veh, TMEM135 / RFU, DEPTOR / Fold change vs veh, DEPTOR / RFU, CPM / Fold change vs veh, CPM / RFU, DNAJB6 / Fold change vs veh, DNAJB6 / RFU, CACNA2D3 / Fold change vs veh, CACNA2D3 / RFU, DTX4 / Fold change vs veh, DTX4 / RFU, TFCP2 / Fold change vs veh, TFCP2 / RFU, GMCL1 /// GMCL1P1 / Fold change vs veh, GMCL1 /// GMCL1P1 / RFU, AEBP2 / Fold change vs veh, AEBP2 / RFU, SNHG1 /// SNORD22 /// SNORD25 /// SNORD26 /// SNORD27 /// SNORD28 /// SNORD29 /// SNORD31 / Fold change vs veh, SNHG1 /// SNORD22 /// SNORD25 /// SNORD26 /// SNORD27 /// SNORD28 /// SNORD29 /// SNORD31 / Fold change (Aza/veh), C12orf56 (ProbeSet 11735607_a_at) / Fold change (ACY-1035/veh), C12orf56 (ProbeSet 11735607_a_at) / Fold change (Aza/veh), FGFR1OP (ProbeSet 11751329_s_at) / Fold change (ACY-1035/veh), FGFR1OP (ProbeSet 11751329_s_at) / Fold change (Aza/veh), VPS36 (ProbeSet 11739960_a_at) / Fold change (ACY-1035/veh), VPS36 (ProbeSet 11739960_a_at) / RFU SYPL1 (11715823_x_at) / Fold change /veh SYPL1 (11715823_x_at) / RFU IGFBP7 (11715501_s_at) / Fold change /veh IGFBP7 (11715501_s_at) / RFU REEP3 (11722064_at) / Fold change /veh REEP3 (11722064_at) / RFU IGLL1 (11728026_x_at) / Fold change /veh IGLL1 (11728026_x_at): dose or concentration left out as unconfirmed
Conditions: MV-4-11 cells, 48 hours

Nc1ccc(-c2cccs2)cc1NC(=O)c1ccc2c(c1)cc(C1CC1)n2CCN1CCOCC1 [ACY-1035]
RFU TUBB4B (11761932_at): 19.33 RFU
